Source: patent EP1616965A1, “Methods and assays for detecting guanylate cyclase activity” (AXXAM S.r.l., priority 2004, dated 2006)

Target: T1, soluble guanylate cyclase (sGC) (Rattus norvegicus, UniProt P19686+P20595, C541D/E473K/R592Q)
T1 construct: To reconstitute the full length mutated gene, these three discrete fragments were used as template in a final PCR reaction; expressed in transfected cells
T1 sequence (P19686 1-690 R592Q): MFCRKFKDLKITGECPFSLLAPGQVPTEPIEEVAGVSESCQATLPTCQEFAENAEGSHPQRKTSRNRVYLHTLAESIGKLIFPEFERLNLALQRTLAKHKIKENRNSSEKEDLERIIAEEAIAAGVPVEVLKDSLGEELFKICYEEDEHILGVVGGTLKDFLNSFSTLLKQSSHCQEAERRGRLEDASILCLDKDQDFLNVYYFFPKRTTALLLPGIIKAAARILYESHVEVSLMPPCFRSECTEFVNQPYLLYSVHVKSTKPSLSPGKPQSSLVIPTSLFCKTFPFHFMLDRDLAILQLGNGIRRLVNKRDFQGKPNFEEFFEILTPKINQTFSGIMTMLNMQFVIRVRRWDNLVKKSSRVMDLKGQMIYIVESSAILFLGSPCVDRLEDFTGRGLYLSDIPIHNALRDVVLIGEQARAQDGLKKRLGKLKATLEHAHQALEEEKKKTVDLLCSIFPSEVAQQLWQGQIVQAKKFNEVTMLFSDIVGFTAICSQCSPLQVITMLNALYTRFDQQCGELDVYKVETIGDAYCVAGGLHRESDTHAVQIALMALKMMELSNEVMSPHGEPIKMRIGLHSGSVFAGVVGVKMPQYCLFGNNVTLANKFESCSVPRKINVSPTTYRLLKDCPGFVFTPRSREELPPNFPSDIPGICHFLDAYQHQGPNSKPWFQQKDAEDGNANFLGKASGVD
T1 sequence (P20595 1-619 E473K/C541D): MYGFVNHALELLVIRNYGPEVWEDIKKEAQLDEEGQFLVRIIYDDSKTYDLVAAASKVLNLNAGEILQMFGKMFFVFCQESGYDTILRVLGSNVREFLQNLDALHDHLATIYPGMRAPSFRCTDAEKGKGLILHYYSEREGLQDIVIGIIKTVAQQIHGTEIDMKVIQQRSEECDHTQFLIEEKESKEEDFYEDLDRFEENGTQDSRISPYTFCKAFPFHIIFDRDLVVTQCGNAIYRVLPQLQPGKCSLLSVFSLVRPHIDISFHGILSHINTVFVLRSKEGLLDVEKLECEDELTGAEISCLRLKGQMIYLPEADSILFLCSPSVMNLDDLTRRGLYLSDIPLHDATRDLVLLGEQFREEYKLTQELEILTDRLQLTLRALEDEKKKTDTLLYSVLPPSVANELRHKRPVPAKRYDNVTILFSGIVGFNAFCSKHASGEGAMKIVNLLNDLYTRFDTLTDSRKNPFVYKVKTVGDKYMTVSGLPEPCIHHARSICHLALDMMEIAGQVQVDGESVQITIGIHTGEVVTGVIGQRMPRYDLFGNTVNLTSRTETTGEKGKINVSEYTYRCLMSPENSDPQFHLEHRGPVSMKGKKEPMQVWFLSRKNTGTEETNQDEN
Assay: MRE-CRE luciferase reporter assay in CHO cAMPL cells expressing mutated sGC (clone 7)
Assay type: cell-based
Settings: dose response of BAY41-2272 in the absence or presence of ODQ (300 nM, 3 µM, 30 µM); 384 wp, Tyrode buffer
Method: According to the invention, the sGC enzymatic activity is determined by coupling a sGC enzyme with modified substrate specificity to a cAMP sensitive reporter construct in a suitable eukaryotic or prokaryotic cell, whereby the activity of the reporter gene is indicative of the sGC enzymatic activity. The sGC enzyme with modified substrate specificity is able to catalyze the conversion of ATP into cyclic AMP without affecting the allosteric regulation of the natural enzyme. The sGC substrate specificity can be modified by replacing the amino acid residues involved in nucleotide binding with the corresponding residues present in the active site of adenylate cyclase. For example, when rat sGC is used, the amino acids Arg592 of α subunit, Glu473 and Cys541 of β subunit are respectively changed into Gln, Lys and Asp, to confer ATP substrate-specificity. More details on the modification of sGC substrate specificity can be found in Sunahara et al. (1998), which is hereby incorporated by reference.
Rat wild type sGC […] and β1 subunits were amplified from brain cDNA by RT-PCR and used as templates for site directed mutagenesis. […]
1500 c/w were seeded in 384 wp. […] Luciferase activity was detected after injection of 25ul Bright-GloTM (Promega) at the CCD camera (60" measurement, high sensitivity). […]

O=c1onc2cnc3ccccc3n12 [ODQ]
Inhibition of BAY41-2272 activity by ODQ: BAY41-2272 stimulating effect on sGC is competed by ODQ
